ChEMBL document CHEMBL3259558, “Identification of amides derived from 1H-pyrazolo[3,4-b]pyridine-5-carboxylic acid as potent inhibitors of human nicotinamide phosphoribosyltransferase (NAMPT)” (Bioorg Med Chem Lett, 2013)
pIC50: −log10 of the molar value. Values after ≈ are worked out from the molar mass of the structure shown. Active and inactive are the calls of the source. The rule behind the calls is not given here.

Assays:
[1] = Apparent permeability from apical to basolateral side in MDCK cells at 10 uM by LC-MS/MS analysis; format: ADME, cell-based, Canis lupus familiaris; settings: dog
A2780 [2] = assay: Antiproliferative activity against human A2780 cells assessed as cell viability after 72 hrs by SRB assay in presence of nitotinamide mononucleotide; format: functional, cell-based
A2780 [3] = assay: Antiproliferative activity against human A2780 cells assessed as cell viability after 72 hrs by SRB assay; format: functional, cell-based; settings: A2780, 72 h
[4] = Aqueous solubility of the compound in PBS at pH 7.2 by LC/CLND analysis; format: physicochemical
[5] = Fraction unbound in mouse plasma at 5 uM by LC-MS/MS analysis; format: ADME, cell-free
[6] = biological target: Nicotinamide phosphoribosyltransferase (Homo sapiens, UniProt P43490); assay: Inhibition of C-terminal His-6-tagged full length human NAMPT expressed in Escherichia coli (DE3) cells after 30 mins by mass spectrometry-based analysis
Chain of Nicotinamide phosphoribosyltransferase (P43490 whole entry): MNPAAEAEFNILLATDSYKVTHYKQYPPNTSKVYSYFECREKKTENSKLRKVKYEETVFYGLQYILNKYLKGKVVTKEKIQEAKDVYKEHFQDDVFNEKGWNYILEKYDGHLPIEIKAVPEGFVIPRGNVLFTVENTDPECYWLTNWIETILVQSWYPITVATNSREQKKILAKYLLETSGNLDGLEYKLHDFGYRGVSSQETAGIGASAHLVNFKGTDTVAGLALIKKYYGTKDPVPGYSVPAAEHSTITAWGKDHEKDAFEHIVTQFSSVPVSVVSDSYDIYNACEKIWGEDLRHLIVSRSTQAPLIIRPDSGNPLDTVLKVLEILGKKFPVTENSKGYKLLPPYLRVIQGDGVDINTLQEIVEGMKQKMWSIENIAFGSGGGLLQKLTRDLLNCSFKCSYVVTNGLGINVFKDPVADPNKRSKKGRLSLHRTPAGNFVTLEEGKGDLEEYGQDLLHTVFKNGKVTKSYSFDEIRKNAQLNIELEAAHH

Compound | Papp A→B at 10 µM [1] | inhibition (A2780 [2]) | pIC50 (A2780 [3]) | solubility [4] | fraction unbound at 5 µM [5] | pIC50 [6]
O=C(NCc1ccc(S(=O)(=O)c2cc(F)cc(F)c2)cc1)c1cnc2[nH]ncc2c1 | 7.8 ×10⁻⁶ cm/s | inactive | 8.22 | < 1 µM | 0.114 | –
O=C(NCc1ccc(S(=O)(=O)c2cncc(C(F)(F)F)c2)cc1)c1cnc2[nH]ncc2c1 | 4.4 ×10⁻⁶ cm/s | inactive | 8.35 | < 1 µM | 0.05 | 8.00
Cn1ncc2cc(C(=O)NCc3ccc(S(=O)(=O)c4ccccc4)cc3)cnc21 | – | inactive | < 5.70 | – | – | 5.77
O=C(NCc1ccc(S(=O)(=O)c2ccccc2)cc1)c1cnc2[nH]ncc2c1 | – | inactive | 7.18 | – | – | 7.27
O=C(NCc1ccc(S(=O)(=O)c2ccc(N3CCOCC3)nc2)cc1)c1cnc2[nH]ncc2c1 | 0.85 ×10⁻⁶ cm/s | inactive | 8.89 | < 1 µM | 0.019 | 8.35
O=C(NCc1ccc(S(=O)(=O)c2cnc3ccccc3c2)cc1)c1cnc2[nH]ncc2c1 | 1.6 ×10⁻⁶ cm/s | inactive | 8.66 | < 1 µM | 0.009 | 8.09
O=C(NCc1ccc(S(=O)(=O)N2CCCCC2)cc1)c1cnc2[nH]ncc2c1 | – | inactive | 7.06 | – | – | 7.00
COC1CCN(S(=O)(=O)c2ccc(CNC(=O)c3cnc4[nH]ncc4c3)cc2)CC1 | – | inactive | 7.41 | – | – | 6.40
O=C(NCc1ccc(S(=O)(=O)N2CCN(C3COC3)CC2)cc1)c1cnc2[nH]ncc2c1 | – | inactive | 7.35 | – | – | 6.36
O=C(NCc1ccc(S(=O)(=O)N2CCC(O)CC2)cc1)c1cnc2[nH]ncc2c1 | – | inactive | 6.68 | – | – | 6.39
CCn1cc(S(=O)(=O)c2ccc(CNC(=O)c3cnc4[nH]ncc4c3)cc2)cn1 | – | inactive | 7.51 | – | – | 6.72
O=C(NCc1ccc(S(=O)(=O)c2cncc(Cl)c2)cc1)c1cnc2[nH]ncc2c1 | 2.5 ×10⁻⁶ cm/s | inactive | 8.62 | < 1 µM | 0.074 | 7.96
O=C(NCc1ccc(S(=O)(=O)c2ccccc2)cc1)c1cnc2[nH]ccc2c1 | – | inactive | < 5.70 | – | – | –
O=C(NCc1ccc(S(=O)(=O)N2CCC(N3CCCC3)CC2)cc1)c1cnc2[nH]ncc2c1 | – | inactive | 7.46 | – | – | –
CN(C)c1ccc(S(=O)(=O)c2ccc(CNC(=O)c3cnc4[nH]ncc4c3)cc2)cn1 | 1.5 ×10⁻⁶ cm/s | inactive | 8.49 | < 1 µM | 0.018 | 7.92
O=C(NCc1ccc(S(=O)(=O)c2ccccc2)cc1)c1ccc2nccn2c1 | – | inactive | – | – | – | –
CCCn1cc(S(=O)(=O)c2ccc(CNC(=O)c3cnc4[nH]ncc4c3)cc2)cn1 | 1.9 ×10⁻⁶ cm/s | inactive | 8.16 | 8.8 µM (≈ 3.74 µg/mL) | 0.071 | 8.00
N#CC1CCN(S(=O)(=O)c2ccc(CNC(=O)c3cnc4[nH]ncc4c3)cc2)CC1 | – | inactive | < 5.70 | – | – | 6.39
O=C(NCc1ccc(S(=O)(=O)N2CCCCC2)cc1)c1ccc2[nH]ncc2c1 | – | inactive | < 5.70 | – | – | < 5.70
O=C(NCc1ccc(S(=O)(=O)N2CC3(CCOCC3)C2)cc1)c1cnc2[nH]ncc2c1 | – | inactive | 7.35 | – | – | 6.96
CC(C)n1cc(S(=O)(=O)c2ccc(CNC(=O)c3cnc4[nH]ncc4c3)cc2)cn1 | – | inactive | 7.92 | – | – | 7.00
NC1CCN(S(=O)(=O)c2ccc(CNC(=O)c3cnc4[nH]ncc4c3)cc2)CC1 | – | inactive | 6.48 | – | – | 6.41
O=C(NCc1ccc(S(=O)(=O)c2ccccc2)cc1)c1cc2cn[nH]c2cn1 | – | inactive | < 5.70 | – | – | < 5.70
O=C(NCc1ccc(S(=O)(=O)c2cccc(OC(F)(F)F)c2)cc1)c1cnc2[nH]ncc2c1 | 4 ×10⁻⁶ cm/s | inactive | 8.32 | < 1 µM | 0.008 | 8.11
O=C(NCc1ccc(S(=O)(=O)N2CCOCC2)cc1)c1cnc2[nH]ncc2c1 | – | inactive | 6.55 | – | – | 6.43
O=C(NCc1ccc(S(=O)(=O)c2ccccc2)cc1)c1ccc2[nH]ncc2n1 | – | inactive | < 5.70 | – | – | 5.89
O=C(NCc1ccc(S(=O)(=O)N2CCCCC2)cc1)c1ccc2nccn2c1 | – | inactive | – | – | – | –
